Assay results reported in patent publication US10336697B2, “Spiro[cyclobutane-1,3′-indolin]-2′-one derivatives as bromodomain inhibitors” (Orion Corporation, priority 2015, dated 2019).
Like-named read-outs stand apart in the source and are kept apart here.

Target: Bet BRD4 full length bromo-domain protein (Homo sapiens, UniProt O60885)
Assay: Bet bromodomain TR-FRET assay (displacement of acetyl histone peptide)
Type: binding
Conditions: 300 nM acetyl histone peptide substrate
[1] = Bet BRD4 full length bromodomain protein, read-out: IC50

| SMILES | IC50 [1] [nM] | IC50 (IC50, Bet BRD4 full length bromodomain protein) [nM] |
| --- | --- | --- |
| CN1CCC(Oc2cc(NS(=O)(=O)c3ccc(F)cc3Cl)cc3c2NC(=O)C32CCC2)CC1 [Compound 134, 2-Chloro-4-fluoro-N-(7′-((1-methylpiperidin-4-yl)oxy)-2′-oxospiro[cyclobutane-1,3′-indolin]-5′-yl)benzenesulfonamide] | < 600 |  |
| CCN1CCC(Oc2cc(NS(=O)(=O)c3ccccc3OC)cc3c2NC(=O)C32CCC2)CC1 [Compound 135, N-(7′-((1-ethylpiperidin-4-yl)oxy)-2′-oxospiro[cyclobutane-1,3′-indolin]-5′-yl)-2-methoxybenzenesulfonamide] | < 600 |  |
| COc1ccccc1S(=O)(=O)Nc1cc(OC2CCN(C(C)C)CC2)c2c(c1)C1(CCC1)C(=O)N2 [Compound 136, N-(7′-((1-isopropylpiperidin-4-yl)oxy)-2′-oxospiro[cyclobutane-1,3′-indolin]-5′-yl)-2-methoxybenzenesulfonamide] | < 600 |  |
| COc1ccccc1S(=O)(=O)Nc1cc(OC2CCN(C3CC3)CC2)c2c(c1)C1(CCC1)C(=O)N2 [Compound 137, N-(7′-((1-cyclopropylpiperidin-4-yl)oxy)-2′-oxospiro[cyclobutane-1,3′-indolin]-5′-yl)-2-methoxybenzenesulfonamide] | < 600 |  |
| CN1CCC(Oc2cc(NS(=O)(=O)c3ccc(Cl)cc3F)cc3c2NC(=O)C32CCC2)C1 (stereo not drawn) [Compound 138, 4-Chloro-2-fluoro-N-(7′-((1-methylpyrrolidin-3-yl)oxy)-2′-oxospiro[cyclobutane-1,3′-indolin]-5′-yl)benzenesulfonamide] | < 600 |  |
| COc1ccccc1S(=O)(=O)Nc1cc(OC[C@@H]2CCCN2C)c2c(c1)C1(CCC1)C(=O)N2 [Compound 139, (S)-2-methoxy-N-(7′-((1-methylpyrrolidin-2-yl)methoxy)-2′-oxospiro[cyclobutane-1,3′-indolin]-5′-yl)benzenesulfonamide] | < 600 |  |
| COc1ccccc1S(=O)(=O)Nc1cc(OC2CCCN(C)CC2)c2c(c1)C1(CCC1)C(=O)N2 (stereo not drawn) [Compound 140, 2-Methoxy-N-(7′-((1-methylazepan-4-yl)oxy)-2′-oxospiro[cyclobutane-1,3′-indolin]-5′-yl)benzenesulfonamide] | < 600 |  |
| COc1ccccc1S(=O)(=O)Nc1cc(OC2CCOCC2)c2c(c1)C1(CCC1)C(=O)N2 [Compound 141, 2-Methoxy-N-(2′-oxo-7′-((tetrahydro-2H-pyran-4-yl)oxy)spiro[cyclobutane-1,3′-indolin]-5′-yl)benzenesulfonamide] | < 600 |  |
| O=C1Nc2c(OC3CCOCC3)cc(NS(=O)(=O)c3ccc(Cl)cc3F)cc2C12CCC2 [Compound 142, 4-Chloro-2-fluoro-N-(2′-oxo-7′-((tetrahydro-2H-pyran-4-yl)oxy)spiro[cyclobutane-1,3′-indolin]-5′-yl)benzenesulfonamide] | < 600 |  |
| COc1ccccc1S(=O)(=O)Nc1cc(OC2CCS(=O)(=O)CC2)c2c(c1)C1(CCC1)C(=O)N2 [Compound 143, N-(7′-((1,1-dioxidotetrahydro-2H-thiopyran-4-yl)oxy)-2′-oxospiro[cyclobutane-1,3′-indolin]-5′-yl)-2-methoxybenzenesulfonamide] | < 600 |  |
| O=C1Nc2c(OC3CCS(=O)(=O)CC3)cc(NS(=O)(=O)c3ccc(Cl)cc3F)cc2C12CCC2 [Compound 144, 4-Chloro-N-(7′-((1,1-dioxidotetrahydro-2H-thiopyran-4-yl)oxy)-2′-oxospiro[cyclobutane-1,3′-indolin]-5′-yl)-2-fluorobenzenesulfonamide] | < 600 |  |
| COc1ccccc1S(=O)(=O)Nc1cc(Oc2ccc(N)nc2)c2c(c1)C1(CCC1)C(=O)N2 [Compound 145, N-(7′-((6-aminopyridin-3-yl)oxy)-2′-oxospiro[cyclobutane-1,3′-indolin]-5′-yl)-2-methoxybenzenesulfonamide] | < 600 |  |
| COc1ccccc1S(=O)(=O)Nc1cc(OCC2CCN(C)CC2)c2c(c1)C1(CCC1)C(=O)N2 [Compound 146, 2-Methoxy-N-(7′-((1-methylpiperidin-4-yl)methoxy)-2′-oxospiro[cyclobutane-1,3′-indolin]-5′-yl)benzenesulfonamide] | < 600 |  |
| O=C1Nc2c(OCc3ccc(F)cn3)cc(NS(=O)(=O)c3ccc(Cl)cc3F)cc2C12CCC2 [Compound 147, 4-Chloro-2-fluoro-N-(7′-((5-fluoropyridin-2-yl)methoxy)-2′-oxospiro[cyclobutane-1,3′-indolin]-5′-yl)benzenesulfonamide] | < 600 |  |
| COc1ccccc1S(=O)(=O)Nc1cc(OCc2ccc(F)cn2)c2c(c1)C1(CCC1)C(=O)N2 [Compound 148, N-(7′-((5-fluoropyridin-2-yl)methoxy)-2′-oxospiro[cyclobutane-1,3′-indolin]-5′-yl)-2-methoxybenzenesulfonamide] | < 600 |  |
| COc1ccccc1S(=O)(=O)Nc1cc(OCc2cncc(F)c2)c2c(c1)C1(CCC1)C(=O)N2 [Compound 149, N-(7′-((5-fluoropyridin-3-yl)methoxy)-2′-oxospiro[cyclobutane-1,3′-indolin]-5′-yl)-2-methoxybenzenesulfonamide] | < 600 |  |
| COc1ccccc1S(=O)(=O)Nc1cc(OCc2cccnc2)c2c(c1)C1(CCC1)C(=O)N2 [Compound 157, 2-Methoxy-N-(2′-oxo-7′-(pyridin-3-ylmethoxy)spiro[cyclobutane-1,3′-indolin]-5′-yl)benzenesulfonamide] | < 600 |  |

| SMILES | IC50 [1] [nM] | IC50 (IC50, Bet BRD4 full length bromodomain protein) [nM] |
| --- | --- | --- |
| COc1ccccc1S(=O)(=O)Nc1cc(OCc2ccccn2)c2c(c1)C1(CCC1)C(=O)N2 [Compound 158, 2-Methoxy-N-(2′-oxo-7′-(pyridin-2-ylmethoxy)spiro[cyclobutane-1,3′-indolin]-5′-yl)benzenesulfonamide] | < 600 |  |
| O=C1Nc2c(OCCc3ccccn3)cc(NS(=O)(=O)c3ccc(Cl)cc3F)cc2C12CCC2 [Compound 159, 4-Chloro-2-fluoro-N-(2′-oxo-7′-(2-(pyridin-2-yl)ethoxy)spiro[cyclobutane-1,3′-indolin]-5′-yl)benzenesulfonamide] | < 600 |  |
| Cn1cncc1COc1cc(NS(=O)(=O)c2ccc(Cl)cc2F)cc2c1NC(=O)C21CCC1 [Compound 160, 4-Chloro-2-fluoro-N-(7′-((1-methyl-1H-imidazol-5-yl)methoxy)-2′-oxospiro[cyclobutane-1,3′-indolin]-5′-yl)benzenesulfonamide] | < 600 |  |
| O=C1Nc2c(OCCn3cccn3)cc(NS(=O)(=O)c3ccc(Cl)cc3F)cc2C12CCC2 [Compound 161, N-(7′-(2-(1H-pyrazol-1-yl)ethoxy)-2′-oxospiro[cyclobutane-1,3′-indolin]-5′-yl)-4-chloro-2-fluorobenzenesulfonamide] | < 600 |  |
| COc1ccccc1S(=O)(=O)Nc1cc(OCCN(C)C)c2c(c1)C1(CCC1)C(=O)N2 [Compound 162, N-(7′-(2-(dimethylamino)ethoxy)-2′-oxospiro[cyclobutane-1,3′-indolin]-5′-yl)-2-methoxybenzenesulfonamide] | < 600 |  |
| CN(C)CCOc1cc(NS(=O)(=O)c2ccc(Cl)cc2F)cc2c1NC(=O)C21CCC1 [Compound 163, 4-Chloro-N-(7′-(2-(dimethylamino)ethoxy)-2′-oxospiro[cyclobutane-1,3′-indolin]-5′-yl)-2-fluorobenzenesulfonamide] | < 600 |  |
| COc1ccccc1S(=O)(=O)Nc1cc(OCCCN(C)C)c2c(c1)C1(CCC1)C(=O)N2 [Compound 164, N-(7′-(3-(dimethylamino)propoxy)-2′-oxospiro[cyclobutane-1,3′-indolin]-5′-yl)-2-methoxybenzenesulfonamide] | < 600 |  |
| CCN(CC)CCOc1cc(NS(=O)(=O)c2ccccc2OC)cc2c1NC(=O)C21CCC1 [Compound 165, N-(7′-(2-(diethylamino)ethoxy)-2′-oxospiro[cyclobutane-1,3′-indolin]-5′-yl)-2-methoxybenzenesulfonamide] | < 600 |  |
| COc1ccccc1S(=O)(=O)Nc1cc(OC(C)CN(C)C)c2c(c1)C1(CCC1)C(=O)N2 (stereo not drawn) [Compound 166, N-(7′-((1-(dimethylamino)propan-2-yl)oxy)-2′-oxospiro[cyclobutane-1,3′-indolin]-5′-yl)-2-methoxybenzenesulfonamide] | < 600 |  |
| COc1ccccc1S(=O)(=O)Nc1cc(OCCN2CCCC2)c2c(c1)C1(CCC1)C(=O)N2 [Compound 167, 2-Methoxy-N-(2′-oxo-7′-(2-(pyrrolidin-1-yl)ethoxy)spiro[cyclobutane-1,3′-indolin]-5′-yl)benzenesulfonamide] | < 600 |  |
| COc1ccccc1S(=O)(=O)Nc1cc(OCCN2CCOCC2)c2c(c1)C1(CCC1)C(=O)N2 [Compound 168, 2-Methoxy-N-(7′-(2-morpholinoethoxy)-2′-oxospiro[cyclobutane-1,3′-indolin]-5′-yl)benzenesulfonamide] | < 600 |  |
| COc1ccccc1S(=O)(=O)Nc1cc(OC(=O)N2CCN(C)CC2)c2c(c1)C1(CCC1)C(=O)N2 [Compound 169, 5′-((2-Methoxyphenyl)sulfonamido)-2′-oxospiro[cyclobutane-1,3′-indolin]-7′-yl 4-methylpiperazine-1-carboxylate] |  | < 600 |
| COc1ccccc1S(=O)(=O)Nc1cc(OC(=O)N2CCOCC2)c2c(c1)C1(CCC1)C(=O)N2 [Compound 170, 5′-((2-Methoxyphenyl)sulfonamido)-2′-oxospiro[cyclobutane-1,3′-indolin]-7′-yl morpholine-4-carboxylate] | < 600 |  |
| CN1CCC(Oc2cc(NS(=O)(=O)c3ccc(F)cc3F)cc3c2NC(=O)C32CCC2)CC1 [Compound 171] | < 600 |  |
| C=C(c1nccs1)c1cc(NS(=O)(=O)c2ccccc2OC)cc2c1NC(=O)C21CCC1 [Compound 172, 2-Methoxy-N-(2′-oxo-7′-(1-(thiazol-2-yl)vinyl)spiro[cyclobutane-1,3′-indolin]-5′-yl)benzenesulfonamide] | < 600 |  |
| O=C1Nc2c(OC3CCC(F)(F)CC3)cc(NS(=O)(=O)c3ccc(Cl)cc3F)cc2C12CCC2 [Compound 175, 4-Chloro-N-(7′-((4,4-difluorocyclohexyl)oxy)-2′-oxospiro [cyclobutane-1,3′-indolin]-5′-yl)-2-fluorobenzenesulfonamide] | 600 to 1000 |  |
